56 compounds from PubChem BioAssay AID540258 (Broad Institute, 2011) can be followed below.

Structures are written as SMILES. Calls of active or inactive are those of the source.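 The calls were made as follows: active = fitted curve reaching 40% activation at or below the top valid dose tested; inconclusive = flat curve at 30 to 70% activation, or poor fit; inactive = the rest.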

One experiment is described as follows: MITF activators via TRPM1 promoter reporter, dose response, SK-MEL-5 cells, luciferase, cherry-pick samples (AID 540258). The conditions noted are these: SK-MEL-5 TRPM1 promoter luciferase reporter, 24 h; at 11 µM (top of the series); 100% = twice the neutral-control signal.
Consider `Cc1ccn2cc(C(=O)Nc3nnc(C)s3)nc2c1`, for which the activation was 28.3% (inactive).

The experiment is the same for the next values; noted with them: SK-MEL-5 TRPM1 promoter luciferase reporter, 24 h; at 35 µM (top of the series); 100% = twice the neutral-control signal.
Consider `C/C(=N\OC(=O)c1cccc(C(F)(F)F)c1)c1sc(-c2ccccc2)nc1C`, for which the activation is 14.6% (inactive). As to `Cc1ccn2cc(-c3cccc(NS(C)(=O)=O)c3)nc2c1`, the activation was 32.6% (inactive). The same measure, in the same setting: as for `O=C(Nc1cccc2[nH]ncc12)c1ccc(F)cc1`, the figure is 28.3% (inactive).

Consider `CCn1cnc2c(Nc3cccc(Cl)c3)nc(C#N)nc21`, for which the activation is 14.6% (inactive). With `Cc1nnc2sc(-c3ccc(N(C)C)cc3)nn2c1=O`, the activation was -5.15% (inactive). As to `COC(=O)Nc1nnc(-c2ccccc2Cl)s1`, the activation was 36% (inactive). Still for that read-out and setting: as for `COc1cccc(/C=N/Nc2c(Cl)cncc2Cl)c1O`, the figure is 25.5% (inactive); as for `O=C(CNC(=O)c1cccs1)c1ccc(Br)cc1`, 1.98% (inactive).

In the case of `CC(=O)Nc1cccc(-c2csc(Nc3ccc(C)cn3)n2)c1`, the activation was -25.2% (inactive). As to `Cc1ccc(SCc2cn3c(C)csc3n2)cc1`, the activation was -37.7% (inactive).

Take `O=c1[nH]c(COc2ccccc2)nc2ccccc12`: the activation was 24.6% (inactive).

Turning to `Cc1nc2ccccn2c1C(=O)N/N=C/c1ccc2c(c1)OCO2`, the activation is 34.3% (inactive).

As to `Cc1cc(C)n2nc(SCN3C(=O)c4ccccc4C3=O)nc2n1`, the activation was -5.27% (inactive). In the case of `CC(C)(C)c1csc(NC2=NS(=O)(=O)c3ccccc32)n1`, the activation is 7.7% (inactive).

With `CC(C)NC(=O)c1ccc2c3n(nc2c1)-c1ccc(Cl)cc1CO3`, the activation was -2.69% (inactive). Turning to `O=C(Nc1ccccc1)C(=O)Nc1ccc2c(c1)N(C(=O)C1CC1)CCC2`, the activation was -36.8% (inactive). With `c1ccc(-c2ccc(-c3cnc4n3CCCCC4)cc2)cc1`, the activation was 30.4% (inactive).

Take `Nc1ncccc1OCc1ccc(Br)cc1`: the activation is -6.84% (inactive). For the compound `CC(C)(C)C(=O)Nc1nc2cc3c(cc2s1)OCO3`, the activation was -25.8% (inactive). Consider `CCN(CC)S(=O)(=O)c1cc(C(=O)Nc2cc(C)[nH]n2)ccc1Cl`, for which the activation is 32.8% (inactive). On the same count and under the same terms, as for `CC1CCC(NC(=O)c2cc3c(s2)CCCC3)CC1` (stereo unspecified), the figure is 33.2% (inactive). As to `CC(C)(C)N1C(=O)c2ccc(C(=O)Nc3nccs3)cc2C1=O`, the activation is 39% (inactive). In the case of `COc1cccc(CN(C)C(=O)c2ccc(COc3ccc(Cl)cc3)cc2)c1OC`, the activation is 32.6% (inactive). For `O=c1[nH]c(Cc2cccs2)nc2scc(-c3ccc(Cl)cc3)c12`, the activation is 14.1% (inactive).

With `CCc1nnc(NS(=O)(=O)c2ccc(NC(=O)c3cccc(Cl)c3)cc2)s1`, the activation was -14.9% (inactive). In the case of `CCN(CC)S(=O)(=O)c1cccc(C(=O)N/N=C(\C)c2cccs2)c1`, the activation is 23.7% (inactive). Regarding `Cc1cccc(C(=O)Nc2sc3c(c2C#N)CCCCC3)c1`, the activation is 3.85% (inactive). Still for that read-out and setting: as for `Cc1ccc(N=Nc2ccc(O)cc2)c(Br)c1`, the figure is -1.83% (inactive). Take `COc1ccc(/C=C/c2ccc3c(Br)ccc(O)c3n2)cc1`: the activation was 25.4% (inactive). For `CCN(CC)c1ccc(C(=O)NNC(=O)c2cccn2C)cc1`, the activation is 25.3% (inactive).

Take `Cc1ccc(/C=N/c2sc3c(c2C#N)CCC3)s1`: the activation was 3.01% (inactive). In the case of `COc1cccc(CNc2nc3ccccc3n2C)c1O`, the activation was -9.75% (inactive). Turning to `COC(=O)Cn1c(=NC(=O)c2ccc(Cl)s2)sc2cc(C)ccc21`, the activation was 23.7% (inactive). Take `CCCc1ccc(-c2cc(C(=O)NCCc3ccc(S(N)(=O)=O)cc3)c3ccccc3n2)cc1`: the activation is 26.4% (inactive). As for `Cc1ccccc1C(=O)O/N=C(\N)Cc1cccs1`, the activation is 23.1% (inactive). `COc1ccc(NC2=Nc3ccccc3CC2)cc1`: the activation is 2.84% (inactive).

`CN1CCc2c(sc(NC(=O)c3ccc4ccccc4c3)c2C(N)=O)C1`: the activation is -68.3% (inactive). For the compound `O=C(Nc1cnc2ccccc2c1)N1CCCCC1`, the activation is 8.92% (inactive). In the case of `O=C(CNc1ccccc1OC(F)F)N1CCc2ccccc21`, the activation is 31.9% (inactive). As for `Cc1cc(C)n(-c2nnc(NC(C)(C)C)nn2)n1`, the activation was 31.6% (inactive). Same read-out and setting: as for `Cc1c(C(=O)Nc2ccccc2F)cnn1-c1ccccc1`, the figure is 27.5% (inactive).

In the case of `COc1ccc(C(=O)Nc2cc(OC)nc(OC)n2)cc1`, the activation is 6.12% (inactive). As to `Cc1ccc(NC(=O)CN2CCCC2c2cccn2C)c(Br)c1` (stereo unspecified), the activation is 29% (inactive). As for `CCN(CC)C(=O)Oc1ccc2c(=O)c(-c3ccc(OC)cc3)coc2c1`, the activation is -22.5% (inactive). Regarding `O=C(N/N=C/c1ccc(OC(=O)c2ccccc2Cl)cc1)c1ccccn1`, the activation is 6.04% (inactive). On to `Cc1ccc(Nc2nc(CSc3n[nH]c(N)n3)cs2)cc1`, for which the activation was -11.9% (inactive). Same read-out and setting: as for `COC(=O)C(C)N1C(=O)S/C(=C/c2cc(C)n(C(C)C)c2C)C1=O` (stereo unspecified), the figure is -32% (inactive). Turning to `COc1ccc(-c2cc(=O)c3cc(C)ccc3[nH]2)cc1`, the activation was -4.97% (inactive). As for `CC(c1ccccc1)c1nnc(NC(=O)Nc2ccccc2F)s1` (stereo unspecified), the activation was 38.2% (inactive). As to `CSCC[C@H](NC(=O)[C@@H]1Cc2ccccc2CN1)C(=O)NC[C@H]1CC[C@H](C(=O)O)CC1`, the activation was -11.7% (inactive).

Turning to `CC(=O)c1ccc(NC(=O)c2noc3c2CCCCC3)cc1`, the activation was -0.504% (inactive).

With `COc1ccccc1C(=O)Nc1ccc2c(C)cc(=O)oc2c1`, the activation was 29.6% (inactive). On the same count and under the same terms, as for `Fc1ccccc1Nc1nc2ccccc2o1`, the figure is -20% (inactive). On to `CC(C)C(=O)Nc1cccc(C(=O)Nc2nnc(C(C)C)s2)c1`, for which the activation was 16.6% (inactive). Turning to `Cc1ccc2oc(Nc3nc(C)c(C)c(C)n3)nc2c1`, the activation is 34.2% (inactive).
